Data as given in ChEMBL document CHEMBL1914398, “Synthesis and evaluation of novel N-fluoropyridyl derivatives of tropane as potential PET imaging agents for the dopamine transporter” (Bioorg Med Chem Lett, 2011).

Assays:
[1] = molecular target: Sodium-dependent serotonin transporter (Homo sapiens, UniProt P31645); experiment: Displacement of [125I]-IDAM from SERT transfected in pig LLC-PK1 cells by radioligand competition binding assay; assay type: cell-based
[2] = molecular target: Sodium-dependent noradrenaline transporter (Homo sapiens, UniProt P23975); experiment: Displacement of [125I]-INXT from NET transfected in pig LLC-PK1 cells by radioligand competition binding assay; assay type: cell-based
Sequence of Sodium-dependent noradrenaline transporter (P23975 whole entry): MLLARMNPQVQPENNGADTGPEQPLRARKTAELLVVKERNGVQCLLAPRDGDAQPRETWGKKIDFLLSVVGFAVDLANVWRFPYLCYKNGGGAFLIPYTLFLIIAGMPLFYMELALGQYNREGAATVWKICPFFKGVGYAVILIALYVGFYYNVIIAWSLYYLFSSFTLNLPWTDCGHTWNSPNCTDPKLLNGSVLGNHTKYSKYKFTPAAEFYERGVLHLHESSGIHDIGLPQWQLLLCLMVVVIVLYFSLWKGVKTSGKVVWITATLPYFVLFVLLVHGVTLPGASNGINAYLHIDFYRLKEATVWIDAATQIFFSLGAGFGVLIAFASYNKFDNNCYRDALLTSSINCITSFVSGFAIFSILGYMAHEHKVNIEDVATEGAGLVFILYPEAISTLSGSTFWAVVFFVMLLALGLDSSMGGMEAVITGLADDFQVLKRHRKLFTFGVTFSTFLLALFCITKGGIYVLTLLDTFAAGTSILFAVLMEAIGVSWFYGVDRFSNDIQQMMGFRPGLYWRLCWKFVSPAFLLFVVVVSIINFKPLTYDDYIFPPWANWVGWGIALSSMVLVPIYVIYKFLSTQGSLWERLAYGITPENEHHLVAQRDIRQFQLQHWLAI

[3] = Selectivity ratio of Ki for SERT to Ki for DAT
[4] = molecular target: Sodium-dependent dopamine transporter (Homo sapiens, UniProt Q01959); experiment: Displacement of [125I]-IPT from DAT transfected in pig LLC-PK1 cells by radioligand competition binding assay; assay type: cell-based
Sequence of Sodium-dependent dopamine transporter (Q01959 whole entry): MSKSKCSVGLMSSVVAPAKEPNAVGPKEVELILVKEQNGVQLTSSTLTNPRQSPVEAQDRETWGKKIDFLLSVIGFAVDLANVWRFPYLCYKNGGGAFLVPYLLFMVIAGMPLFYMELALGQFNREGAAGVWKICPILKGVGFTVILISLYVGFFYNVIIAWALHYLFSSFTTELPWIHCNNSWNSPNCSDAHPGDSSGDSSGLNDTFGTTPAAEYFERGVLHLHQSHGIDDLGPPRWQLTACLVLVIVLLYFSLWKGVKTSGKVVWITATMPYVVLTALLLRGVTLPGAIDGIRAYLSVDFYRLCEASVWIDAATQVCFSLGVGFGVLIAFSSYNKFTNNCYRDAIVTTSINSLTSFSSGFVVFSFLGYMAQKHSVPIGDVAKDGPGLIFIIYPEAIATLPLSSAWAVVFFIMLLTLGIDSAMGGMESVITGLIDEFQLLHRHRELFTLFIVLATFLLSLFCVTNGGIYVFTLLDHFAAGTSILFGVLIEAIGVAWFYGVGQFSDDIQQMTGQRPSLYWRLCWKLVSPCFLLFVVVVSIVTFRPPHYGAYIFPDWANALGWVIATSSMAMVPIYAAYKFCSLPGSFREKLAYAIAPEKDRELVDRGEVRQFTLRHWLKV

[5] = Selectivity ratio of Ki for NET to Ki for DAT

Sequence of Sodium-dependent serotonin transporter (P31645 whole entry): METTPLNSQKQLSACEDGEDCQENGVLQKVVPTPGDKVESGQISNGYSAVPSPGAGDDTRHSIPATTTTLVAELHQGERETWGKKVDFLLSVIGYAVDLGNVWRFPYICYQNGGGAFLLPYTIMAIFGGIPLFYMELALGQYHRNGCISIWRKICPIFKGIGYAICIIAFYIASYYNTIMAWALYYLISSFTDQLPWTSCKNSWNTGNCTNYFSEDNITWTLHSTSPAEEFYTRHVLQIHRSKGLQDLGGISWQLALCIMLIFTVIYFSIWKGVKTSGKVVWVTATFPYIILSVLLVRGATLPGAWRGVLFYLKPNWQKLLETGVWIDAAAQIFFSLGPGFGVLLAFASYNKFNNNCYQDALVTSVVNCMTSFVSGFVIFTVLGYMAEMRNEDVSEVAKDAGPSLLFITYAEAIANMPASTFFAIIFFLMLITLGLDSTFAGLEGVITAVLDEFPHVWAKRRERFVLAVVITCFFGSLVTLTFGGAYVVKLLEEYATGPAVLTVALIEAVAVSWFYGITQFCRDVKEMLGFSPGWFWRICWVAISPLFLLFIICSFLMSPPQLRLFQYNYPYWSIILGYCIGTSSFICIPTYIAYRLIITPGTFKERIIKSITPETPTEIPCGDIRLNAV

Row | Compound | Ki [1] | Ki [2] | Ratio Ki [3] | Ki [4] | Ratio Ki [5]
1 | COC(=O)[C@H]1[C@@H](c2ccc(F)cc2)C[C@H]2CC[C@H]1N2C | 181 nM | 635 nM |  |  | 
2 | CN1C2CCC1[C@@H](C(=O)Nc1ccc(Br)nc1)[C@@H](c1ccc(Cl)cc1)C2 (stereo partly drawn) | 15300 nM | 16200 nM | 144 | 106 nM | 153
3 | CN1C2CCC1[C@@H](CNc1cccc(Br)n1)[C@@H](c1ccc(Cl)cc1)C2 (stereo partly drawn) | 7.4 nM | 29.1 nM | 1.3 | 5.6 nM | 5.2
4 | CN1C2CCC1[C@@H](C(=O)Nc1cccc(Br)n1)[C@@H](c1ccc(Cl)cc1)C2 (stereo partly drawn) | 3210 nM | 3850 nM | 37 | 86.7 nM | 44
5 | CN1C2CCC1[C@@H](CNc1cccc(F)n1)[C@@H](c1ccc(Cl)cc1)C2 (stereo partly drawn) | 20.6 nM | 66.2 nM | 5 | 4.1 nM | 16
6 | COC(=O)[C@@H]1C2CCC(C[C@@H]1c1ccc(Cl)cc1)N2C (stereo partly drawn) |  |  |  | 5.1 nM | 
